The supplement of paper PMC10307832

Assays:
Assay in all cases: relative viability (nuclei count vs DMSO), 5 days (fraction); higher = more cells survive
[1] = compound: CC(C)(C)c1cc(NC(=O)Nc2ccc(-c3cn4c(n3)sc3cc(OCCN5CCOCC5)ccc34)cc2)no1 [Quizartinib] + NC(=O)Nc1cc(-c2cccc(F)c2)sc1C(=O)N[C@H]1CCCNC1 [AZD7762] (partner 0.2 µM)
Method in brief: (§1)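 Relative viability is defined as nuclei in treated wells over nuclei in vehicle wells. Duplicate plates were run and medians reported. Lung cancer cell lines in 1536-well plates were dosed by pin tool one day after seeding, with one drug or with a fixed anchor-drug dose plus five library-drug doses (not always all listed) in √10 steps, and nuclei were counted after 5 days.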

[2] = compound: COCC[n+]1c2c(n(Cc3cnccn3)c1C)C(=O)c1ccccc1C2=O [YM155] + C[C@@H](Oc1cc(-c2cnn(C3CCNCC3)c2)cnc1N)c1c(Cl)ccc(F)c1Cl [Crizotinib] (partner 1 µM)
Method in brief: as §1

[3] = compound: COCC[n+]1c2c(n(Cc3cnccn3)c1C)C(=O)c1ccccc1C2=O [YM155] + Nc1ncn([C@H]2C[C@H](O)[C@@H](CO)O2)c(=O)n1 [Decitabine] (partner 2 µM)
Method in brief: as §1

[4] = compound: CC(C)(C)c1cc(NC(=O)Nc2ccc(-c3cn4c(n3)sc3cc(OCCN5CCOCC5)ccc34)cc2)no1 [Quizartinib] + CC(=O)c1c(C)c2cnc(Nc3ccc(N4CCNCC4)cn3)nc2n(C2CCCC2)c1=O [Palbociclib] (partner 0.5 µM)
Method in brief: as §1

Cell Line	relative viability ([1]; first compound 0.001 µM)	relative viability ([1]; first compound 0.003162 µM)	relative viability ([1]; first compound 0.01 µM)	relative viability ([1]; first compound 0.03162 µM)	relative viability ([1]; first compound 0.1 µM)	relative viability ([2]; first compound 0.002 µM)	relative viability ([2]; first compound 0.006325 µM)	relative viability ([2]; first compound 0.02 µM)	relative viability ([2]; first compound 0.06325 µM)	relative viability ([3]; first compound 0.002 µM)	relative viability ([3]; first compound 0.006325 µM)	relative viability ([3]; first compound 0.02 µM)	relative viability ([3]; first compound 0.06325 µM)	relative viability ([4]; first compound 0.001 µM)	relative viability ([4]; first compound 0.003162 µM)	relative viability ([4]; first compound 0.01 µM)	relative viability ([4]; first compound 0.03162 µM)	relative viability ([4]; first compound 0.1 µM)
H3255	0.905	0.894	0.911	0.911	1.03	0.836	0.874	0.87	0.874	0.533	0.645	0.622	0.558	0.318	0.358	0.329	0.305	0.309
NCI-H1755	0.486	0.392	0.489	0.526	0.434	0.882	0.833	0.973	0.859	0.697	0.711	0.723	0.784	0.418	0.451	0.471	0.446	0.41
NCI-H23	0.302	0.173	0.277	0.195	0.25	0.527	0.607	0.47	0.234		0.278	0.291	0.363	0.425	0.543	0.548	0.453	0.396
PC-14	0.31	0.417	0.327	0.22	0.457	0.948	0.931	1.04	0.818	0.19	0.223	0.2	0.161	0.485	0.457	0.488		0.477
NCI-H647	0.39	0.651	0.422	0.325	0.566	1.08	1.31	1.12	0.755	0.482	0.405	0.288	0.272	0.371	0.348	0.413	0.403	0.511
NCI-H1792	0.547	0.654	0.691	0.496	0.604	1	1.05	0.994	0.984	0.453	0.514	0.6	0.566		0.654	0.702	0.617	0.66
EKVX		0.621	0.744	0.67	0.841	0.834	1.04	0.919	0.839	0.332	0.389	0.312	0.228		0.354	0.397	0.451	0.283
NCI-H1355	0.715	0.828	0.622	0.835	0.736	0.988	1.11	1.03	1.01	0.312	0.374	0.383	0.357	0.379	0.378	0.415	0.36	0.363
NCI-H2085	0.861	0.9	1.04	0.87	0.596	0.698	0.767	0.77	0.477	0.594	0.557	0.54	0.471	0.407	0.486	0.444	0.453	0.388
